Measured values from patent publication US8445408B2, “Pyrimidine derivatives and their use for controlling undesired plant growth” (Bayer Cropscience AG, priority 2008, dated 2013).

Assays:
Amaranthus retroflexus [1] = test: Post-emergence herbicidal effect; assay type: in vivo; settings: Dosage 320 (0.32 kg active substance per hectare); treated in one-leaf stage; visual scoring after ca. 3 weeks vs untreated controls; 100% = plants have died
Protocol: (§1) [table] 2. Post-emergence herbicidal effect and crop plant compatibility Seeds of monocotyledonous or dicotyledonous weed plants or crop plants are planted in wood-fiber pots in sandy loam, covered with earth and grown in a greenhouse under good growth conditions. 2 to 3 weeks after sowing, the test plants are treated in the one-leaf stage. The compounds according to the invention, formulated in the form of wettable powders (WP) or as emulsion concentrates (EC), are then sprayed onto the green plant parts as aqueous suspension or emulsion at a water application rate of 600 to 800 I/ha (converted) with the addition of 0.2% of wetting agent. After ca. 3 weeks' standing time of the test plants in the greenhouse under optimum growth conditions, the effect of the preparations is scored visually in comparison with untreated controls (herbicidal effect in percent (%): 100% effect=plants have died, 0% effect=as control plants).

Veronica persica [2] = test: Post-emergence herbicidal effect; assay type: in vivo; settings: Dosage 320 (0.32 kg active substance per hectare); treated in one-leaf stage; visual scoring after ca. 3 weeks vs untreated controls; 100% = plants have died
Protocol: as §1

Abutilon theophrasti = test: Post-emergence herbicidal effect; assay type: in vivo; settings: Dosage 320 (0.32 kg active substance per hectare); treated in one-leaf stage; visual scoring after ca. 3 weeks vs untreated controls; 100% = plants have died
Protocol: as §1

Chenopodium album = test: Post-emergence herbicidal effect; assay type: in vivo; settings: Dosage 320 (0.32 kg active substance per hectare); treated in one-leaf stage; visual scoring after ca. 3 weeks vs untreated controls; 100% = plants have died
Protocol: as §1

Matricaria inodora [3] = test: Post-emergence herbicidal effect; assay type: in vivo; settings: Dosage 320 (0.32 kg active substance per hectare); treated in one-leaf stage; visual scoring after ca. 3 weeks vs untreated controls; 100% = plants have died
Protocol: as §1

Alopecurus myosuroides = test: Pre-emergence herbicidal effect; assay type: in vivo; settings: Dosage 320 (0.32 kg active substance per hectare); visual scoring after 3 weeks vs untreated controls; 100% = plants have died
Source text: (§2) Seeds of monocotyledonous or dicotyledonous weed plants or crop plants are planted in wood-fiber pots in sandy loam and covered with earth. The compounds according to the invention, formulated in the form of wettable powders (WP) or as emulsion concentrates (EC), are then applied as aqueous suspension or emulsion at a water application rate of 600 to 800 I/ha (converted) with the addition of 0.2% of wetting agent to the surface of the covering earth. Following the treatment, the pots are placed in a greenhouse and kept under good growth conditions for the test plants. The visual scoring of the damage on the test plants is carried out after an experiment time of 3 weeks in comparison with untreated controls (herbicidal effect in percent (%): 100% effect=plants have died, 0% effect=as control plants). [table]

Cyperus esculentus = test: Pre-emergence herbicidal effect; assay type: in vivo; settings: Dosage 320 (0.32 kg active substance per hectare); visual scoring after 3 weeks vs untreated controls; 100% = plants have died
Source text: as §2

Lolium multiflorum [4] = test: Pre-emergence herbicidal effect; assay type: in vivo; settings: Dosage 320 (0.32 kg active substance per hectare); visual scoring after 3 weeks vs untreated controls; 100% = plants have died
Source text: as §2

Polygonum convolvulus [5] = test: Pre-emergence herbicidal effect; assay type: in vivo; settings: Dosage 320 (0.32 kg active substance per hectare); visual scoring after 3 weeks vs untreated controls; 100% = plants have died
Source text: as §2

Setaria viridis [6] = test: Pre-emergence herbicidal effect; assay type: in vivo; settings: Dosage 320 (0.32 kg active substance per hectare); visual scoring after 3 weeks vs untreated controls; 100% = plants have died
Source text: as §2

[7] = logp (HCOOH), chemicophysical data; settings: HCOOH (formic acid)
Viola tricolor [8] = test: Post-emergence herbicidal effect; assay type: in vivo; settings: Dosage 320 (0.32 kg active substance per hectare); treated in one-leaf stage; visual scoring after ca. 3 weeks vs untreated controls; 100% = plants have died
Protocol: as §1

Lolium multiflorum [9] = test: Post-emergence herbicidal effect; assay type: in vivo; settings: Dosage 320 (0.32 kg active substance per hectare); treated in one-leaf stage; visual scoring after ca. 3 weeks vs untreated controls; 100% = plants have died
Protocol: as §1

Echinochloa crus-galli [10] = test: Post-emergence herbicidal effect; assay type: in vivo; settings: Dosage 320 (0.32 kg active substance per hectare); treated in one-leaf stage; visual scoring after ca. 3 weeks vs untreated controls; 100% = plants have died
Protocol: as §1

Pharbitis purpurea = test: Post-emergence herbicidal effect; assay type: in vivo; settings: Dosage 320 (0.32 kg active substance per hectare); treated in one-leaf stage; visual scoring after ca. 3 weeks vs untreated controls; 100% = plants have died
Protocol: as §1

Polygonum convolvulus [11] = test: Post-emergence herbicidal effect; assay type: in vivo; settings: Dosage 320 (0.32 kg active substance per hectare); treated in one-leaf stage; visual scoring after ca. 3 weeks vs untreated controls; 100% = plants have died
Protocol: as §1

Setaria viridis [12] = test: Post-emergence herbicidal effect; assay type: in vivo; settings: Dosage 320 (0.32 kg active substance per hectare); treated in one-leaf stage; visual scoring after ca. 3 weeks vs untreated controls; 100% = plants have died
Protocol: as §1

Viola tricolor [13] = test: Pre-emergence herbicidal effect; assay type: in vivo; settings: Dosage 320 (0.32 kg active substance per hectare); visual scoring after 3 weeks vs untreated controls; 100% = plants have died
Source text: as §2

Amaranthus retroflexus [14] = test: Pre-emergence herbicidal effect; assay type: in vivo; settings: Dosage 320 (0.32 kg active substance per hectare); visual scoring after 3 weeks vs untreated controls; 100% = plants have died
Source text: as §2

Veronica persica [15] = test: Pre-emergence herbicidal effect; assay type: in vivo; settings: Dosage 320 (0.32 kg active substance per hectare); visual scoring after 3 weeks vs untreated controls; 100% = plants have died
Source text: as §2

Stellaria media [16] = test: Pre-emergence herbicidal effect; assay type: in vivo; settings: Dosage 320 (0.32 kg active substance per hectare); visual scoring after 3 weeks vs untreated controls; 100% = plants have died
Source text: as §2

Matricaria inodora [17] = test: Pre-emergence herbicidal effect; assay type: in vivo; settings: Dosage 320 (0.32 kg active substance per hectare); visual scoring after 3 weeks vs untreated controls; 100% = plants have died
Source text: as §2

Echinochloa crus-galli [18] = test: Pre-emergence herbicidal effect; assay type: in vivo; settings: Dosage 320 (0.32 kg active substance per hectare); visual scoring after 3 weeks vs untreated controls; 100% = plants have died
Source text: as §2

Stellaria media [19] = test: Post-emergence herbicidal effect; assay type: in vivo; settings: Dosage 320 (0.32 kg active substance per hectare); treated in one-leaf stage; visual scoring after ca. 3 weeks vs untreated controls; 100% = plants have died
Protocol: as §1

Cc1ccc2c(c1)C(Nc1cc(C(F)(F)F)nc(N)n1)C(C)C2 (racemic) [Example 1.31]
Post-emergence herbicidal effect AMARE (Amaranthus retroflexus [1]): 100%
Post-emergence herbicidal effect VERPE (Veronica persica [2]): 90%
Post-emergence herbicidal effect ABUTH (Abutilon theophrasti): 90%
Post-emergence herbicidal effect CHEAL (Chenopodium album): 80%
Post-emergence herbicidal effect MATIN (Matricaria inodora [3]): 90%
Pre-emergence herbicidal effect ALOMY (Alopecurus myosuroides): 100%
Pre-emergence herbicidal effect CYPES (Cyperus esculentus): 100%
Pre-emergence herbicidal effect LOLMU (Lolium multiflorum [4]): 80%
Pre-emergence herbicidal effect POLCO (Polygonum convolvulus [5]): 100%
Pre-emergence herbicidal effect SETVI (Setaria viridis [6]): 100%

N#Cc1c(N[C@@H]2CCCc3ccccc32)nc(N)nc1-c1ccccc1 [Example 1.53, 2-Amino-4-phenyl-6-[(1R)-1,2,3,4-tetrahydronaphthalen-1-ylamino]pyrimidine-5-carbonitrile]
chromatographic logP [7]: 2.87

Nc1nc(N[C@@H]2CCc3ccccc32)cc(C(F)F)n1 [Example 1.36]
Post-emergence herbicidal effect VIOTR (Viola tricolor [8]): 90%
Post-emergence herbicidal effect AMARE (Amaranthus retroflexus [1]): 100%
Post-emergence herbicidal effect VERPE (Veronica persica [2]): 90%
Post-emergence herbicidal effect LOLMU (Lolium multiflorum [9]): 90%
Post-emergence herbicidal effect ABUTH (Abutilon theophrasti): 80%
Post-emergence herbicidal effect ECHCG (Echinochloa crus-galli [10]): 90%
Post-emergence herbicidal effect PHBPU (Pharbitis purpurea): 80%

Cc1ccc2c(c1)[C@H](Nc1cc(Cl)nc(N)n1)[C@@H](C)C2 [Example 1.42]
Post-emergence herbicidal effect VIOTR (Viola tricolor [8]): 90%
Post-emergence herbicidal effect AMARE (Amaranthus retroflexus [1]): 100%
Post-emergence herbicidal effect VERPE (Veronica persica [2]): 80%
Post-emergence herbicidal effect POLCO (Polygonum convolvulus [11]): 80%
Post-emergence herbicidal effect ECHCG (Echinochloa crus-galli [10]): 90%
Post-emergence herbicidal effect SETVI (Setaria viridis [12]): 80%
Post-emergence herbicidal effect PHBPU (Pharbitis purpurea): 100%
Pre-emergence herbicidal effect ALOMY (Alopecurus myosuroides): 100%
Pre-emergence herbicidal effect VIOTR (Viola tricolor [13]): 100%
Pre-emergence herbicidal effect AMARE (Amaranthus retroflexus [14]): 100%
Pre-emergence herbicidal effect VERPE (Veronica persica [15]): 100%
Pre-emergence herbicidal effect POLCO (Polygonum convolvulus [5]): 100%
Pre-emergence herbicidal effect STEME (Stellaria media [16]): 100%
Pre-emergence herbicidal effect MATIN (Matricaria inodora [17]): 100%
Pre-emergence herbicidal effect ECHCG (Echinochloa crus-galli [18]): 100%
Pre-emergence herbicidal effect SETVI (Setaria viridis [6]): 100%

Cc1cc(C)c2c(c1)C(Nc1cc(C(F)(F)F)nc(N)n1)CCC2 (racemic) [Example 1.17]
Pre-emergence herbicidal effect AMARE (Amaranthus retroflexus [14]): 100%
Pre-emergence herbicidal effect VERPE (Veronica persica [15]): 100%

Nc1nc(N[C@@H]2CCCc3ccccc32)cc(C(F)F)n1 [Example 1.35]
Post-emergence herbicidal effect VIOTR (Viola tricolor [8]): 80%
Post-emergence herbicidal effect AMARE (Amaranthus retroflexus [1]): 90%
Post-emergence herbicidal effect PHBPU (Pharbitis purpurea): 80%
Pre-emergence herbicidal effect ALOMY (Alopecurus myosuroides): 80%
Pre-emergence herbicidal effect VIOTR (Viola tricolor [13]): 100%
Pre-emergence herbicidal effect AMARE (Amaranthus retroflexus [14]): 100%
Pre-emergence herbicidal effect VERPE (Veronica persica [15]): 100%
Pre-emergence herbicidal effect LOLMU (Lolium multiflorum [4]): 100%
Pre-emergence herbicidal effect POLCO (Polygonum convolvulus [5]): 100%
Pre-emergence herbicidal effect ECHCG (Echinochloa crus-galli [18]): 80%
Pre-emergence herbicidal effect SETVI (Setaria viridis [6]): 90%

Nc1nc(NC2CCc3ccccc32)cc(C(F)(F)F)n1 (racemic) [Example 1.18]
Pre-emergence herbicidal effect AMARE (Amaranthus retroflexus [14]): 100%
Pre-emergence herbicidal effect VERPE (Veronica persica [15]): 100%
Pre-emergence herbicidal effect POLCO (Polygonum convolvulus [5]): 100%

Cc1ccc2c(c1)[C@H](Nc1cc(C(F)F)nc(N)n1)[C@@H](C)C2 [Example 1.30]
Post-emergence herbicidal effect VIOTR (Viola tricolor [8]): 85%
Post-emergence herbicidal effect AMARE (Amaranthus retroflexus [1]): 95%
Post-emergence herbicidal effect VERPE (Veronica persica [2]): 90%
Post-emergence herbicidal effect LOLMU (Lolium multiflorum [9]): 80%
Post-emergence herbicidal effect STEME (Stellaria media [19]): 80%
Post-emergence herbicidal effect ABUTH (Abutilon theophrasti): 85%
Post-emergence herbicidal effect ECHCG (Echinochloa crus-galli [10]): 87%
Post-emergence herbicidal effect SETVI (Setaria viridis [12]): 80%
Post-emergence herbicidal effect PHBPU (Pharbitis purpurea): 90%
Pre-emergence herbicidal effect ALOMY (Alopecurus myosuroides): 100%
Pre-emergence herbicidal effect VIOTR (Viola tricolor [13]): 100%
Pre-emergence herbicidal effect AMARE (Amaranthus retroflexus [14]): 100%
Pre-emergence herbicidal effect VERPE (Veronica persica [15]): 100%
Pre-emergence herbicidal effect LOLMU (Lolium multiflorum [4]): 100%
Pre-emergence herbicidal effect POLCO (Polygonum convolvulus [5]): 100%
Pre-emergence herbicidal effect STEME (Stellaria media [16]): 100%
Pre-emergence herbicidal effect MATIN (Matricaria inodora [17]): 100%
Pre-emergence herbicidal effect ECHCG (Echinochloa crus-galli [18]): 100%
Pre-emergence herbicidal effect SETVI (Setaria viridis [6]): 100%

Nc1nc(Cl)cc(N[C@@H]2CCc3ccccc32)n1 [Example 1.44]
Pre-emergence herbicidal effect VIOTR (Viola tricolor [13]): 100%
Pre-emergence herbicidal effect AMARE (Amaranthus retroflexus [14]): 100%
Pre-emergence herbicidal effect VERPE (Veronica persica [15]): 100%
Pre-emergence herbicidal effect POLCO (Polygonum convolvulus [5]): 100%

Cc1ccc2c(c1)[C@H](Nc1cc(C(F)(F)F)nc(N)n1)[C@@H](C)C2 [Example 1.27, N4-[(1R,2S)-2,6-dimethyl-2,3-dihydro-1H-inden-1-yl]-6-(trifluoromethyl)pyrimidine-2,4-diamine]
Post-emergence herbicidal effect VIOTR (Viola tricolor [8]): 85%
Post-emergence herbicidal effect AMARE (Amaranthus retroflexus [1]): 100%
Post-emergence herbicidal effect VERPE (Veronica persica [2]): 85%
Post-emergence herbicidal effect POLCO (Polygonum convolvulus [11]): 80%
Post-emergence herbicidal effect ABUTH (Abutilon theophrasti): 90%
Post-emergence herbicidal effect ECHCG (Echinochloa crus-galli [10]): 85%
Post-emergence herbicidal effect SETVI (Setaria viridis [12]): 80%
Post-emergence herbicidal effect PHBPU (Pharbitis purpurea): 85%
chromatographic logP [7]: 2.77
Pre-emergence herbicidal effect VIOTR (Viola tricolor [13]): 100%
Pre-emergence herbicidal effect AMARE (Amaranthus retroflexus [14]): 100%
Pre-emergence herbicidal effect VERPE (Veronica persica [15]): 100%
Pre-emergence herbicidal effect LOLMU (Lolium multiflorum [4]): 80%
Pre-emergence herbicidal effect POLCO (Polygonum convolvulus [5]): 100%
Pre-emergence herbicidal effect STEME (Stellaria media [16]): 100%
Pre-emergence herbicidal effect MATIN (Matricaria inodora [17]): 100%
Pre-emergence herbicidal effect ECHCG (Echinochloa crus-galli [18]): 100%
Pre-emergence herbicidal effect SETVI (Setaria viridis [6]): 100%

Nc1ncc(C(F)(F)F)c(N[C@@H]2CCCc3ccccc32)n1 [Example 1.60, N4-[(1R)-1,2,3,4-tetrahydronaphthalen-1-yl]-5-(trifluoromethyl)pyrimidine-2,4-diamine]
melting point: 120 to 121 °C
